In patent US11840686B2, “Modulation of prekallikrein (PKK) expression” (Ionis Pharmaceuticals, Inc., priority 2013, dated 2023):

Key:
[1] = Liver function markers in cynomolgus monkeys (Example 8); conditions: cynomolgus monkey plasma, 40 mg/kg sc
Experimental: Prior to the study, the monkeys were kept in quarantine for a 30-day period, during which the animals were observed daily for general health. The monkeys were 2-4 years old and weighed between 2 and 4 kg. Ten groups of four randomly assigned male cynomolgus monkeys each were injected subcutaneously with ISIS oligonucleotide or PBS. PBS solution or ISIS oligonucleotides at a dose of 40 mg/kg were administered initially with a loading regimen consisting of four doses on the first week of the study (days 1, 3, 5, and 7), followed by a maintenance regimen consisting of once weekly administration starting on Day 14 (weeks 2 to 13). Subcutaneous injections were performed in clock-wise rotations at 4 sites on the back; one site per dose. The injection sites were delineated by tattoo, while sedated using ketamine, and were separated by a minimum of 3 cm.
To evaluate the effect of ISIS oligonucleotides on hepatic function, the monkeys were fasted overnight. Approximately, 1.5 mL of blood samples were collected from all the study groups. Blood was collected in tubes without anticoagulant for serum separation. The tubes were kept at room temperature for a minimum of 90 min and then centrifuged at 3,000 rpm for 10 min. Levels of various liver function markers were measured using a Toshiba 120FR NEO chemistry analyzer (Toshiba Co., Japan).

[2] = test system: PKK mRNA; experiment: PKK mRNA in cynomolgus monkey liver (Example 8); format: in vivo; conditions: primates, Example 8
How it was run: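 Cynomolgus monkeys were dosed with human antisense oligonucleotides cross-reactive with the rhesus sequence. Liver RNA taken on day 87 or 88, 48 h after the last dose, was assayed by real-time PCR (primer probe set RTS3455) and normalized to cyclophilin. Values are percent PKK mRNA inhibition versus PBS control.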

## Tes Ges mCes Aes Aes Gds Tds mCds Tds mCds Tds Tds Gds Gds mCds Aes Aes Aes mCes Ae [ISIS 546254]
[1]
  ALT: 54 IU/L
  AST: 68 IU/L
  Albumin: 3.8 g/dL
[2]
  inhibiting PKK mRNA and protein expression in primates: effective for inhibiting PKK mRNA and protein expression
